Numbered stars: 1 amine (or outer) side, 2 acyl side, 3 side chain; on linkers, the order of the positions; unused ones are H or OH. Bridge positions count the residues as written; N and C are the ends. Square brackets hold non-standard residues; d marks the D form. Peptide text beside a SMILES is read from it. * marks the point of attachment. Bip(4'-COOH) = N[C@@H](Cc1ccc(-c2ccc(C(=O)O)cc2)cc1)C(=O)O; Bip(4'-NHAc) = CC(=O)Nc1ccc(-c2ccc(C[C@H](N)C(=O)O)cc2)cc1; X1 = O=C(C[C@H](N[*:1])C(=O)[*:2])NS(=O)(=O)c1ccc(Cl)cc1F; X2 = O=C(C[C@H](N[*:1])C(=O)[*:2])NS(=O)(=O)c1ccc(Cl)cc1; X6 = O=C(C[C@H](N[*:1])C(=O)[*:2])NS(=O)(=O)c1ccccc1Cl; X7 = O=C(C[C@H](N[*:1])C(=O)[*:2])NS(=O)(=O)c1ccccc1F; Phe(3-CF3) = N[C@@H](Cc1cccc(C(F)(F)F)c1)C(=O)O; Ala(morpholin-4-yl) = N[C@@H](CN1CCOCC1)C(=O)O; Phe(4-CONH2) = NC(=O)c1ccc(C[C@H](N)C(=O)O)cc1; Phe(4-COOH) = N[C@@H](Cc1ccc(C(=O)O)cc1)C(=O)O; Phe(2,4-Cl2) = N[C@@H](Cc1ccc(Cl)cc1Cl)C(=O)O; X5 = CS(=O)(=O)NC(=O)C[C@H](N[*:1])C(=O)[*:2]; Bip = N[C@@H](Cc1ccc(-c2ccccc2)cc1)C(=O)O; Phe(3-F) = N[C@@H](Cc1cccc(F)c1)C(=O)O; Phe(3-Me) = Cc1cccc(C[C@H](N)C(=O)O)c1; Cha = N[C@@H](CC1CCCCC1)C(=O)O; Carboxymethyl = O=C(O)C*; NMeA = CN[C@@H](C)C(=O)O; Orn = NCCC[C@H](N)C(=O)O; Dab = NCC[C@H](N)C(=O)O

For experiment [1], the target named is T1, PE-labeled human PD-L1-Ig binding to Jurkat cell line over-expressing human PD-1 (Jurkat-PD-1) (Homo sapiens, UniProt Q15116).
T1 construct: expressed in transfected cells; host or cells: Jurkat
Nature of the experiment: Jurkat-PD-1 Cell Binding High-Content Screening Assay (CBA): Method 2 (presence and absence of tween-20). To be noted: Jurkat-PD-1 cells, PE-labeled PD-L1-Ig 20 nM; presence or absence of tween-20 not given; head μM; read-out: CBA Method 2 μM. In outline:
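Compounds incubated with Jurkat cells overexpressing human PD-1 for 2 h at 37° C, tested with and without tween-20 to flag aggregation. PE-labeled human PD-L1-Ig (20 nM final) added in DMEM/10% FCS; binding read by high-content imaging.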

Experiment [2] deals with T1, PE-labeled human PD-L1-Ig binding to Jurkat cell line over-expressing human PD-1 (Jurkat-PD-1). Put plainly: Jurkat-PD-1 Cell Binding High-Content Screening Assay (CBA): Method 1. To be noted: Jurkat-PD-1 cells, PE-labeled PD-L1-Ig; μM; read-out: CBA Method 1 μM.

T1 sequence (Q15116 25-288): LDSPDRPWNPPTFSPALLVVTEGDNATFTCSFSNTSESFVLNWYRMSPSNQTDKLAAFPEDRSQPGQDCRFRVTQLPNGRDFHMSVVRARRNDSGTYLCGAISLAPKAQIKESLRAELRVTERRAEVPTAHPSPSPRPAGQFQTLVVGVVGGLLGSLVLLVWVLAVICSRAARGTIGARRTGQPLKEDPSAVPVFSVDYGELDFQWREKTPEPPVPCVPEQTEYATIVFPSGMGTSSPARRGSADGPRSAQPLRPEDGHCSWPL

With `Cc1cccc(C[C@@H]2NC(=O)[C@H](CC(=O)O)NC(=O)[C@H](Cc3ccc(OCC(=O)O)cc3)NC(=O)[C@H](CN3CCOCC3)NC(=O)CSC[C@@H](C(=O)N[C@@H](CCN)C(N)=O)NC(=O)[C@H](CCCN)NC(=O)[C@H](C(C)C)NC(=O)[C@H](Cc3ccc(Cl)cc3Cl)NC(=O)[C@H](CCN)NC(=O)[C@@H](CC(C)C)NC(=O)[C@H](C)N(C)C(=O)[C@H](CCC(N)=O)NC(=O)[C@H](Cc3ccc(-c4ccccc4)cc3)NC(=O)[C@H](Cc3ccc(C(=O)O)cc3)NC2=O)c1` [Example 5041] ({CH2CO}-[Ala(morpholin-4-yl)]Y(Carboxymethyl)D[Phe(3-Me)][Phe(4-COOH)][Bip]Q[NMeA][dL][Dab][Phe(2,4-Cl2)]V[Orn]C[Dab]-NH2; thioether N-14), the IC50 in experiment [1] came to 0.0822 µM; in experiment [2], 0.0888 µM.

Consider `CC(C)C[C@H]1NC(=O)[C@H](C)N(C)C(=O)[C@H](CCC(N)=O)NC(=O)[C@H](Cc2ccc(-c3ccccc3)cc2)NC(=O)[C@H](Cc2ccc(C(=O)O)cc2)NC(=O)[C@H](Cc2cccc(C(F)(F)F)c2)NC(=O)[C@H](CC(=O)NS(=O)(=O)c2ccccc2F)NC(=O)[C@H](Cc2ccc(C(=O)O)cc2)NC(=O)[C@H](CN2CCOCC2)NC(=O)CSC[C@@H](C(=O)N[C@@H](CCN)C(N)=O)NC(=O)[C@H](CCCN)NC(=O)[C@H](C(C)C)NC(=O)[C@H](CC2CCCCC2)NC(=O)[C@H](CCN)NC1=O` [Example 5077] ({CH2CO}-[Ala(morpholin-4-yl)][Phe(4-COOH)][X7][Phe(3-CF3)][Phe(4-COOH)][Bip]Q[NMeA][dL][Dab][Cha]V[Orn]C[Dab]-NH2; thioether N-14), for which the IC50 came to 0.338 µM in experiment [1] and 0.345 µM in experiment [2].

On to `CC(C)C[C@H]1NC(=O)[C@H](C)N(C)C(=O)[C@H](CCC(N)=O)NC(=O)[C@H](Cc2ccc(-c3ccccc3)cc2)NC(=O)[C@H](Cc2ccc(C(=O)O)cc2)NC(=O)[C@H](Cc2cccc(C(F)(F)F)c2)NC(=O)[C@H](CC(=O)NS(=O)(=O)c2ccc(Cl)cc2)NC(=O)[C@H](Cc2ccc(C(=O)O)cc2)NC(=O)[C@H](CN2CCOCC2)NC(=O)CSC[C@@H](C(=O)N[C@@H](CCN)C(N)=O)NC(=O)[C@H](CCCN)NC(=O)[C@H](C(C)C)NC(=O)[C@H](CC2CCCCC2)NC(=O)[C@H](CCN)NC1=O` [Example 5078] ({CH2CO}-[Ala(morpholin-4-yl)][Phe(4-COOH)][X2][Phe(3-CF3)][Phe(4-COOH)][Bip]Q[NMeA][dL][Dab][Cha]V[Orn]C[Dab]-NH2; thioether N-14), for which the results for the IC50 in experiment [1] and in experiment [2] were 0.264 µM and 0.533 µM, respectively.

For the compound `CC(C)C[C@H]1NC(=O)[C@H](C)N(C)C(=O)[C@H](CCC(N)=O)NC(=O)[C@H](Cc2ccc(-c3ccccc3)cc2)NC(=O)[C@H](Cc2ccc(-c3ccc(C(=O)O)cc3)cc2)NC(=O)[C@H](Cc2cccc(C(F)(F)F)c2)NC(=O)[C@H](CC(=O)O)NC(=O)[C@H](Cc2ccc(C(=O)O)cc2)NC(=O)[C@H](CN2CCOCC2)NC(=O)CSC[C@@H](C(=O)N[C@@H](CCN)C(N)=O)NC(=O)[C@H](CCCN)NC(=O)[C@H](C(C)C)NC(=O)[C@H](CC2CCCCC2)NC(=O)[C@H](CCN)NC1=O` [Example 5058] ({CH2CO}-[Ala(morpholin-4-yl)][Phe(4-COOH)]D[Phe(3-CF3)][Bip(4'-COOH)][Bip]Q[NMeA][dL][Dab][Cha]V[Orn]C[Dab]-NH2; thioether N-14), the IC50 was found to be 0.0024 µM in experiment [1] and 0.0032 µM in experiment [2].

Consider `CC(C)C[C@H]1NC(=O)[C@H](C)N(C)C(=O)[C@H](CCCN)NC(=O)[C@H](Cc2ccc(-c3ccccc3)cc2)NC(=O)[C@H](Cc2ccc(-c3ccc(C(=O)O)cc3)cc2)NC(=O)[C@H](Cc2cccc(C(F)(F)F)c2)NC(=O)[C@H](CC(=O)O)NC(=O)[C@H](Cc2ccc(-c3ccc(C(=O)O)cc3)cc2)NC(=O)[C@H](Cc2ccc(OCC(=O)O)cc2)NC(=O)CSC[C@@H](C(=O)N[C@@H](CCN)C(N)=O)NC(=O)[C@H](CCC(=O)O)NC(=O)[C@H](C(C)C)NC(=O)[C@H](CC2CCCCC2)NC(=O)[C@H](CCN)NC1=O` [Example 5085] ({CH2CO}-Y(Carboxymethyl)[Bip(4'-COOH)]D[Phe(3-CF3)][Bip(4'-COOH)][Bip][Orn][NMeA][dL][Dab][Cha]VEC[Dab]-NH2; thioether N-14), for which the figures for the IC50 in experiment [1] and in experiment [2] were 0.01 µM and 0.0315 µM, respectively.

On to `Cc1cccc(C[C@@H]2NC(=O)[C@H](CC(=O)O)NC(=O)[C@H](Cc3ccc(OCC(=O)O)cc3)NC(=O)[C@H](CCN)NC(=O)CSC[C@@H](C(=O)N[C@@H](CCN)C(N)=O)NC(=O)[C@H](CCC(N)=O)NC(=O)[C@H](C(C)C)NC(=O)[C@H](CC3CCCCC3)NC(=O)[C@H](CCN)NC(=O)[C@@H](CC(C)C)NC(=O)[C@H](C)N(C)C(=O)[C@H](Cc3ccc(C(N)=O)cc3)NC(=O)[C@H](Cc3ccc(-c4ccccc4)cc3)NC(=O)[C@H](Cc3ccc(OCC(=O)O)cc3)NC2=O)c1` [Example 5068] ({CH2CO}-[Dab]Y(Carboxymethyl)D[Phe(3-Me)]Y(Carboxymethyl)[Bip][Phe(4-CONH2)][NMeA][dL][Dab][Cha]VQC[Dab]-NH2; thioether N-14), for which the IC50 in experiment [1] came to 0.0106 µM; in experiment [2] it was 0.0172 µM.

Take `Cc1cccc(C[C@@H]2NC(=O)[C@H](CC(=O)NS(C)(=O)=O)NC(=O)[C@H](Cc3ccc(OCC(=O)O)cc3)NC(=O)[C@H](CN3CCOCC3)NC(=O)CSC[C@@H](C(=O)N[C@@H](CCN)C(N)=O)NC(=O)[C@H](CCCN)NC(=O)[C@H](C(C)C)NC(=O)[C@H](CC3CCCCC3)NC(=O)[C@H](CCN)NC(=O)[C@@H](CC(C)C)NC(=O)[C@H](C)N(C)C(=O)[C@H](Cc3ccc(C(=O)O)cc3)NC(=O)[C@H](Cc3ccc(-c4ccccc4)cc3)NC(=O)[C@H](Cc3ccc(C(=O)O)cc3)NC2=O)c1` [Example 5046] ({CH2CO}-[Ala(morpholin-4-yl)]Y(Carboxymethyl)[X5][Phe(3-Me)][Phe(4-COOH)][Bip][Phe(4-COOH)][NMeA][dL][Dab][Cha]V[Orn]C[Dab]-NH2; thioether N-14): the IC50 turned out to be 0.517 µM in experiment [1] and 0.514 µM in experiment [2].

`CC(=O)Nc1ccc(-c2ccc(C[C@@H]3NC(=O)[C@H](Cc4cccc(C)c4)NC(=O)[C@H](CC(=O)O)NC(=O)[C@H](Cc4ccc(C(=O)O)cc4)NC(=O)[C@H](CC(C)C)NC(=O)CSC[C@@H](C(=O)N[C@@H](CCN)C(N)=O)NC(=O)[C@H](CCCN)NC(=O)[C@H](C(C)C)NC(=O)[C@H](Cc4cccc(F)c4)NC(=O)[C@H](CCN)NC(=O)[C@@H](CC(C)C)NC(=O)[C@H](C)N(C)C(=O)[C@H](CCC(N)=O)NC(=O)[C@H](Cc4ccc(-c5ccccc5)cc4)NC3=O)cc2)cc1` [Example 5055] ({CH2CO}-L[Phe(4-COOH)]D[Phe(3-Me)][Bip(4'-NHAc)][Bip]Q[NMeA][dL][Dab][Phe(3-F)]V[Orn]C[Dab]-NH2; thioether N-14): the IC50 in experiment [1] came out at 0.0321 µM; in experiment [2] it was 0.0385 µM.

For `Cc1cccc(C[C@@H]2NC(=O)[C@H](CC(=O)O)NC(=O)[C@H](Cc3ccc(C(=O)O)cc3)NC(=O)[C@H](CN3CCOCC3)NC(=O)CSC[C@@H](C(=O)N[C@@H](CCN)C(N)=O)NC(=O)[C@H](CCCN)NC(=O)[C@H](C(C)C)NC(=O)[C@H](CC3CCCCC3)NC(=O)[C@H](CCN)NC(=O)[C@@H](CC(C)C)NC(=O)[C@H](C)N(C)C(=O)[C@H](CCC(N)=O)NC(=O)[C@H](Cc3ccc(-c4ccccc4)cc3)NC(=O)[C@H](Cc3ccc(-c4ccc(C(=O)O)cc4)cc3)NC2=O)c1` [Example 5059] ({CH2CO}-[Ala(morpholin-4-yl)][Phe(4-COOH)]D[Phe(3-Me)][Bip(4'-COOH)][Bip]Q[NMeA][dL][Dab][Cha]V[Orn]C[Dab]-NH2; thioether N-14), the IC50 in experiment [1] came out at 0.0033 µM; in experiment [2], 0.0029 µM.

With `CC(C)C[C@H]1NC(=O)[C@H](C)N(C)C(=O)[C@H](CCC(N)=O)NC(=O)[C@H](Cc2ccc(-c3ccccc3)cc2)NC(=O)[C@H](Cc2ccc(C(=O)O)cc2)NC(=O)[C@H](Cc2cccc(C(F)(F)F)c2)NC(=O)[C@H](CC(=O)NS(=O)(=O)c2ccccc2Cl)NC(=O)[C@H](Cc2ccc(C(=O)O)cc2)NC(=O)[C@H](CN2CCOCC2)NC(=O)CSC[C@@H](C(=O)N[C@@H](CCN)C(N)=O)NC(=O)[C@H](CCCN)NC(=O)[C@H](C(C)C)NC(=O)[C@H](CC2CCCCC2)NC(=O)[C@H](CCN)NC1=O` [Example 5080] ({CH2CO}-[Ala(morpholin-4-yl)][Phe(4-COOH)][X6][Phe(3-CF3)][Phe(4-COOH)][Bip]Q[NMeA][dL][Dab][Cha]V[Orn]C[Dab]-NH2; thioether N-14), the IC50 in experiment [1] came to 0.332 µM; in experiment [2], 0.224 µM.

As for `CC(C)C[C@H]1NC(=O)[C@H](C)N(C)C(=O)[C@H](CCC(N)=O)NC(=O)[C@H](Cc2ccc(-c3ccccc3)cc2)NC(=O)[C@H](Cc2ccc(C(=O)O)cc2)NC(=O)[C@H](Cc2cccc(C(F)(F)F)c2)NC(=O)[C@H](CC(=O)NS(=O)(=O)c2ccc(Cl)cc2F)NC(=O)[C@H](Cc2ccc(C(=O)O)cc2)NC(=O)[C@H](CN2CCOCC2)NC(=O)CSC[C@@H](C(=O)N[C@@H](CCN)C(N)=O)NC(=O)[C@H](CCCN)NC(=O)[C@H](C(C)C)NC(=O)[C@H](CC2CCCCC2)NC(=O)[C@H](CCN)NC1=O` [Example 5081] ({CH2CO}-[Ala(morpholin-4-yl)][Phe(4-COOH)][X1][Phe(3-CF3)][Phe(4-COOH)][Bip]Q[NMeA][dL][Dab][Cha]V[Orn]C[Dab]-NH2; thioether N-14), the values for the IC50 in experiment [1] and in experiment [2] were 0.113 µM and 0.173 µM, respectively.

For the origin of these results see patent publication US20240409585A1, “MACROCYCLIC IMMUNOMODULATORS” (priority 2021, published 2024).
